Source: patent publication US20060134001A1, “Conjugated infrared fluorescent substances for detection of cell death” (priority 2002, published 2006)

Key:
[1] = test system: mitochondria and/or endoplasmic reticulum; experiment: Subcellular partitioning of dye; format: cell-based; conditions: concentration-dependent
vasculature of the heart = experiment: Near-infrared fluorescence imaging of heart vasculature with vascular contrast agent after LAD artery ischemia; format: in vivo; conditions: rat, 12.5 nmol injected, 24 hours after LAD artery ischemia; compared with 2,3,5-triphenyltetrazolium chloride staining
Description: The otherwise invisible near-infrared fluorescence from indocyanine green has been pseudo-colored white prior to superimposition on the color video (anatomic) image. […] In pseudo-colored magenta are the red fluorescent microbeads injected during initial ischemia. […] The area of the heart internal to this “ring” of perfusion is termed the “area at risk”, i.e., the area of myocardium that had no blood flow during LAD ligation. […] Finally, the near-infrared fluorescence signal from injection of 25 μg of human annexin V covalently conjugated with IRDye78 (a near-infrared fluorophore) is shown pseudo-colored in green.

[2] = In vivo early half-life of dye
[3] = Solubility of dye in blood; conditions: small molecule form
[4] = human annexin V; read-out: affinity (kd) for phosphatidylserine (PS); cited from earlier work
[5] = cited from earlier work
[6] = test system: apoptotic and/or necrotic cells; experiment: Near-infrared fluorescence imaging of labeled annexin V in rat heart after LAD artery ischemia/reperfusion; format: in vivo; conditions: 25 μg injected, imaged 24 hours after 20 minutes LAD ligation and reperfusion
Description: A branch of the left anterior descending (LAD) artery of the rat heart was ligated with a silk suture. During ligation, the aorta was cross-clamped and 10 μm red fluorescent microbeads were injected into the ventricle. […] After 20 minutes of ligation, the suture was removed, and the heart was permitted to re-perfuse.
The otherwise invisible near-infrared fluorescence from indocyanine green has been pseudo-colored white prior to superimposition on the color video (anatomic) image. […] In pseudo-colored magenta are the red fluorescent microbeads injected during initial ischemia. This area was well perfused during ischemia. The area of the heart internal to this “ring” of perfusion is termed the “area at risk”, i.e., the area of myocardium that had no blood flow during LAD ligation. The area of avascularity/infarct identified with indocyanine green is contained within the area at risk. Finally, the near-infrared fluorescence signal from injection of 25 μg of human annexin V covalently conjugated with IRDye78 (a near-infrared fluorophore) is shown pseudo-colored in green. The green areas, thus, represent apoptotic and/or necrotic cells, i.e., those areas within the area at risk that have actually succumbed to the ischemia. […] Presumably, this area was supplied by either diffusion or smaller collateral vessels fed by the well-perfused area.

## CN1C(=CC=C2CCCC(C=CC3=[N+](C)c4ccccc4C3(C)C)=C2Cl)C(C)(C)c2ccccc21.[O-][Cl+3]([O-])([O-])[O-] [IR-786]
[1]
  partitioning into organelles: partitions efficiently into mitochondria and/or endoplasmic reticulum

## CC1(C)C(/C=C/C=C/C=C/C=C2\N(CCCCS(=O)(=O)O)c3ccc4ccccc4c3C2(C)C)=[N+](CCCCS(=O)(=O)[O-])c2ccc3ccccc3c21 [Indocyanine green, indocyanine green]
Vasculature of the heart
  vascular staining of ischemic heart: reveals an area of avascularity that corresponds to infarcted tissue
[2]
  in vivo early half-life: shorter half-life
[3]
  solubility in blood: somewhat less soluble in blood

## Human annexin V: human annexin V, molecular weight 36 kd, binds phosphatidylserine; targeting moiety
[4]
  Kd: 7 nM
[5]; in vivo
  dose at which pharmacological effects (anti-coagulant effects) begin: greater than 300 μg protein/kg
[5]; tracer doses, e.g. 10 μg protein/kg to 50 μg protein/kg, animal or human subjects
  pharmacologic or toxic side effects at tracer doses: no reported pharmacologic or toxic side effects

## human annexin V covalently conjugated with IRDye78: annexin V reacted under aqueous conditions with the N-hydroxysuccinimide ester of IRDye78, a near-infrared fluorophore
[6]
  near-infrared fluorescence signal localisation in ischemic heart: several areas of infarcted myocardium within the area at risk
